Laboratory results as given in paper PMC9090415, “Discovery of small molecule inhibitors of Plasmodium falciparum apicoplast DNA polymerase” (Journal of Enzyme Inhibition and Medicinal Chemistry, 2022).

Target: P. falciparum apicoplast DNA polymerase (Pf-apPOL) (Plasmodium falciparum, UniProt Q8ILY1)
Assay: Fluorescence-based high-throughput DNA polymerase assay (molecular beacon), primary screen and dose-response
Format: biochemical
Conditions: for DNA Pol: 90 min, 10 µM; for % inhibition apPOL 180' 2.5 / % inhibition apPOL 180' 5 / % inhibition apPOL 180' 10 / % inhibition apPOL 180' 20 / % inhibition apPOL 180' 40 / % inhibition apPOL 180' 80: read at 180'
Summary of the method: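 Single-point screening used 10 µM compound with 20 nM polymerase, 20 nM hairpin substrate and 6 µM dNTPs for 90 min at 25 °C. Confirmatory titrations (2.5–80 µM) followed fluorescence at three times, and IC50 was derived from a fit including a cooperativity term n.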

[1] = first dose-response set, concentration 80

P. falciparum apicoplast DNA polymerase (Pf-apPOL), sequence (Q8ILY1 entry or part of it): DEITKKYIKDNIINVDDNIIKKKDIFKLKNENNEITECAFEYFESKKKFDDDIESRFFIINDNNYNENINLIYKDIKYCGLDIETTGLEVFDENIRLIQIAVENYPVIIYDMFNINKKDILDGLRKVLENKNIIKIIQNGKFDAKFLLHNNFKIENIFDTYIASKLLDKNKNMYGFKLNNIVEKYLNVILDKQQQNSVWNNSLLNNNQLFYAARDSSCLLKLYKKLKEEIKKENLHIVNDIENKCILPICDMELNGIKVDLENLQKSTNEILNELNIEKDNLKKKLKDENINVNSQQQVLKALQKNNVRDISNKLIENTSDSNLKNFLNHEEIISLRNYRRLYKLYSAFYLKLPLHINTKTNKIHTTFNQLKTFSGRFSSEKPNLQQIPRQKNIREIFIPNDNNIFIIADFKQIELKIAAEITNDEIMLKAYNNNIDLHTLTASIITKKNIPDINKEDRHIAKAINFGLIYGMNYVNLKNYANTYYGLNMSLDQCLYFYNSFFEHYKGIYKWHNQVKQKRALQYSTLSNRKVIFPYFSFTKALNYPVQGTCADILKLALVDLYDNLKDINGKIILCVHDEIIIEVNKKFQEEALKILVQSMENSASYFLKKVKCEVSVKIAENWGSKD

## COc1ccc(/C=C/c2cc(C(=O)O)c3ccccc3n2)cc1 [Molecule 5, COc1ccc(cc1)/C=C/c1nc2ccccc2c(c1)C(=O)O]
186 hits, DNA Pol (screen value), unit not given
  DNA Pol: 61
'DNA Pol' (screen value), unit not given
  DNA Pol: 61
DRC-1, read at 10', concentration 2.5
  % inhibition Apo pol 10' 2.5: 43.4862%
DRC-1, read at 10', concentration 5
  % inhibition Apo pol 10' 5: 53.3879%
DRC-1, read at 10', concentration 10
  % inhibition Apo pol 10' 10: 61.7052%
DRC-1, read at 10', concentration 20
  % inhibition Apo pol 10' 20: 65.8277%
DRC-1, read at 10', concentration 40
  % inhibition Apo pol 10' 40: 71.2771%
DRC-1, read at 10', concentration 80
  % inhibition Apo pol 10' 80: 72.4327%
DRC-1, read at 90', concentration 2.5
  % inhibition Apol 90' 2.5: 35.7188%
DRC-1, read at 90', concentration 5
  % inhibition Apol 90' 5: 44.8099%
DRC-1, read at 90', concentration 10
  % inhibition Apol 90' 10: 55.1819%
DRC-1, read at 90', concentration 20
  % inhibition Apol 90' 20: 60.94%
DRC-1, read at 90', concentration 40
  % inhibition Apol 90' 40: 68.5014%
DRC-1, read at 90', concentration 80
  % inhibition Apol 90' 80: 67.8921%
DRC-1, concentration 2.5
  % inhibition apPOL 180' 2.5: 28.4361%
DRC-1, concentration 5
  % inhibition apPOL 180' 5: 35.945%
DRC-1, concentration 10
  % inhibition apPOL 180' 10: 46.8104%
DRC-1, concentration 20
  % inhibition apPOL 180' 20: 54.1695%
DRC-1, concentration 40
  % inhibition apPOL 180' 40: 63.6204%
DRC-1, concentration 80
  % inhibition apPOL 180' 80: 63.471%
DRC-2, concentration 20
  % inhibition Apo pol 5': 38%
  % inhibition Apol 40': 46%
  % inhibition ApPOL 90': 46%
  % inhibition apPOL 180': 38%
  % inhibition apPOL 180' 20: 38%
DRC-2, concentration 2.5
  % inhibition Apol 40': 46%
  % inhibition ApPOL 90': 45%
  % inhibition apPOL 180' 2.5: 34%
DRC-2, concentration 5
  % inhibition Apol 40': 36%
  % inhibition ApPOL 90': 36%
  % inhibition apPOL 180' 5: 25%
DRC-2, concentration 80
  % inhibition Apol 40': 38%
  % inhibition apPOL 180': 45%
  % inhibition apPOL 180' 80: 45%
DRC-2, read at 5', concentration 2.5
  % inhibition Apo pol 5' 2.5: 37%
DRC-2, read at 5', concentration 5
  % inhibition Apo pol 5' 5: 31%
DRC-2, read at 5', concentration 10
  % inhibition Apo pol 5' 10: 8.56%
DRC-2, read at 5', concentration 20
  % inhibition Apo pol 5' 20: 38%
DRC-2, read at 5', concentration 40
  % inhibition Apo pol 5' 40: 43%
DRC-2, read at 5', concentration 80
  % inhibition Apo pol 5' 80: 14%
DRC-2, read at 40', concentration 2.5
  % inhibition Apol 40' 2.5: 46%
DRC-2, read at 40', concentration 5
  % inhibition Apol 40' 5: 36%
DRC-2, read at 40', concentration 10
  % inhibition Apol 40' 10: -66%
DRC-2, read at 40', concentration 20
  % inhibition Apol 40' 20: 46%
DRC-2, read at 40', concentration 40
  % inhibition Apol 40' 40: 55%
DRC-2, read at 40', concentration 80
  % inhibition Apol 40' 80: 38%
DRC-2, read at 90', concentration 2.5
  % inhibition ApPOL 90' 2.5: 45%
DRC-2, read at 90', concentration 5
  % inhibition ApPOL 90' 5: 36%
DRC-2, read at 90', concentration 10
  % inhibition ApPOL 90' 10: -90%
DRC-2, read at 90', concentration 20
  % inhibition ApPOL 90' 20: 46%
DRC-2, read at 90', concentration 40
  % inhibition ApPOL 90' 40: 56%
DRC-2, read at 90', concentration 80
  % inhibition ApPOL 90' 80: 44%
DRC-2, concentration 10
  % inhibition apPOL 180' 10: -139%
DRC-2, concentration 40
  % inhibition apPOL 180' 40: 50%

## COc1ccc(-c2n[nH]cc2Oc2ccc(Cl)cc2)c(O)c1 [KU0029837]
"DNA Pol" of the 186 hits list (screen value)
  DNA Pol: 54
DRC-1, concentration 2.5
  % inhibition Apo pol 10': 13.0965%
  % inhibition Apol 90': 6.836%
  % inhibition apPOL 180': 2.031%
DRC-1, concentration 5
  % inhibition Apo pol 10': 22.8396%
  % inhibition Apol 90': 14.8627%
  % inhibition apPOL 180': 3.615%
DRC-1, concentration 10
  % inhibition Apo pol 10': 52.0762%
  % inhibition Apol 90': 39.7229%
  % inhibition apPOL 180': 25.5956%
DRC-1, concentration 20
  % inhibition Apo pol 10': 64.1383%
  % inhibition Apol 90': 52.6198%
  % inhibition apPOL 180': 36.8517%
DRC-1, concentration 40
  % inhibition Apo pol 10': 82.54%
  % inhibition Apol 90': 73.85%
  % inhibition apPOL 180': 62.2191%
DRC-1, concentration 80
  % inhibition Apo pol 10': 88.9574%
  % inhibition Apol 90': 85.1708%
  % inhibition apPOL 180': 78.7822%
DRC-2, concentration 2.5
  % inhibition Apo pol 5': 15%
  % inhibition Apol 40': 15%
  % inhibition ApPOL 90': 13%
  % inhibition apPOL 180': 2.39%
DRC-2, concentration 5
  % inhibition Apo pol 5': 23%
  % inhibition Apol 40': 27%
  % inhibition ApPOL 90': 24%
  % inhibition apPOL 180': 13%
DRC-2, concentration 10
  % inhibition Apo pol 5': 39%
  % inhibition Apol 40': 46%
  % inhibition ApPOL 90': 44%
  % inhibition apPOL 180': 32%
DRC-2, concentration 20
  % inhibition Apo pol 5': 43%
  % inhibition Apol 40': 55%
  % inhibition ApPOL 90': 53%
  % inhibition apPOL 180': 43%
DRC-2, concentration 40
  % inhibition Apo pol 5': 51%
  % inhibition Apol 40': 69%
  % inhibition ApPOL 90': 71%
  % inhibition apPOL 180': 66%
DRC-2, concentration 80
  % inhibition Apo pol 5': 51%
  % inhibition Apol 40': 72%
  % inhibition ApPOL 90': 74%
  % inhibition apPOL 180': 74%
Primary screen value, DNA Pol
  DNA Pol: 54

## COc1ccc(-c2cc3nc4c(c(=O)n3[nH]2)CCN(C(=O)CCc2ccccc2)C4)cc1 [Molecule 17, COc1ccc(cc1)c1[nH]n2c(c1)nc1c(c2=O)CCN(C1)C(=O)CCc1ccccc1]
'DNA Pol' of the 186 hits list (primary screen value)
  DNA Pol: 52
DNA Pol (primary screen value)
  DNA Pol: 52
DRC-1, concentration 2.5
  % inhibition Apo pol 10': 3%
  % inhibition Apol 90': -3.33%
  % inhibition apPOL 180': -7%
DRC-1, concentration 5
  % inhibition Apo pol 10': 30%
  % inhibition Apol 90': 18%
  % inhibition apPOL 180': 7.5%
DRC-1, concentration 10
  % inhibition Apo pol 10': 64%
  % inhibition Apol 90': 49%
  % inhibition apPOL 180': 34%
DRC-1, concentration 20
  % inhibition Apo pol 10': 81%
  % inhibition Apol 90': 69%
  % inhibition apPOL 180': 55%
DRC-1, concentration 40
  % inhibition Apo pol 10': 82%
  % inhibition Apol 90': 72%
  % inhibition apPOL 180': 58%
DRC-1, concentration 80
  % inhibition Apo pol 10': 78%
  % inhibition Apol 90': 78%
  % inhibition apPOL 180': 70%
DRC-2, concentration 2.5
  % inhibition Apo pol 5': -5.33%
  % inhibition Apol 40': -5.29%
  % inhibition ApPOL 90': -4.53%
  % inhibition apPOL 180': -5%
DRC-2, concentration 5
  % inhibition Apo pol 5': 12%
  % inhibition Apol 40': 14%
  % inhibition ApPOL 90': 13%
  % inhibition apPOL 180': 6%
DRC-2, concentration 10
  % inhibition Apo pol 5': 31%
  % inhibition Apol 40': 35%
  % inhibition ApPOL 90': 33%
  % inhibition apPOL 180': 24%
DRC-2, concentration 20
  % inhibition Apo pol 5': 43%
  % inhibition Apol 40': 54%
  % inhibition ApPOL 90': 53%
  % inhibition apPOL 180': 44%
DRC-2, concentration 40
  % inhibition Apo pol 5': 44%
  % inhibition Apol 40': 57%
  % inhibition ApPOL 90': 57%
  % inhibition apPOL 180': 50%
DRC-2, concentration 80
  % inhibition Apo pol 5': 38%
  % inhibition Apol 40': 58%
  % inhibition ApPOL 90': 61%
  % inhibition apPOL 180': 58%
[1]
  % inhibition Apo pol 10': 78%
  % inhibition Apol 90': 78%
First dose-response set, concentration 40
  % inhibition apPOL 180': 58%
